Source: PMC10786919, “Design-rules for stapled peptides with in vivo activity and their application to Mdm2/X antagonists” (Nature Communications, 2024)
pEC50: −log10 of the molar value. ≈ marks a conversion by molar mass, not a printed value. Read-outs that look alike come from different tables or passages of the source. Positions of bridges follow the written chain, without caps; N, C: chain ends. Non-standard residues stand in square brackets, D forms with d. Residues, ends and D or L forms follow the SMILES beside them. Phe(4-SO3H) = N[C@@H](Cc1ccc(S(=O)(=O)O)cc1)C(=O)O; Lys(N3) = [N-]=[N+]=NCCCC[C@H](N)C(=O)O; R8 = C=CCCCCCC[C@@](C)(N)C(=O)O; Cba = N[C@@H](CC1CCC1)C(=O)O; S5 = C=CCCC[C@](C)(N)C(=O)O; βAla = NCCC(=O)O

Experiments:
HCT116 cells = assay: Lactate dehydrogenase (LDH) release assay; format: cell-based
Summary of the method: (§1)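 HCT116 cells stably carrying a p53-responsive β-lactamase reporter, seeded at 8000 cells/well, exposed to compound with 0.5% final DMSO. LDH release read with the CytoTox-ONE membrane integrity kit. Values are geometric means of at least three biological replicates.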

[1] = Lactate dehydrogenase (LDH) release assay; format: cell-based
Summary of the method: as §1

[2] = Solubility assay (kinetic solubility, PBS pH 7); format: physicochemical; settings: pH 7, aqueous buffer, kinetic from dmso stock, pH 7, PBS; read-out: Solubility
Summary of the method: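 Reference standards were made by diluting the 10 mM stock to 100 µM in acetonitrile:methanol:DMSO 10:80:10. Solubility in µM was calculated as the sample peak area divided by the standard peak area, multiplied by the standard concentration.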

in vitro = assay: in vitro
Description: Further, there have been several literature reports[18]–[20] that highlight that the combination of hydrophobic character and positive charge can result in mast cell degranulation (MCD), a potentially fatal condition[18]–[20]. […] The NanoClick assay[22] determines permeability of azide-labeled peptides by combining intracellular copper-free click chemistry with NanoBRET technology. Specifically, if an azido-peptide achieves cytosolic exposure, it will react with a cyclooctyne-decorated Halotag construct that is fused with nanoluciferase. This reaction blocks the click labelling of a subsequently added azido-labeled acceptor dye, thus decreasing the NanoBRET signal in a manner that is target-binding agnostic.
This assay was previously described in detail. The assay was performed in 384-well white assay plates (PerkinElmer CUSG03874) using assay-ready frozen cells that had been transiently transfected with the NanoLuc-HaloTag vector that were thawed at plated in complete media at a density of 6000 cells/ well and incubated at 37 °C 5% CO2 overnight. DIBAC-CA was diluted in assay buffer (OptiMem without phenol red + 1% FBS) and added to cells at a final concentration of 3 μM and incubated at 37 °C 5% CO2 for 1 h. Cells were subsequently centrifuged using a BlueWasher instrument (Blue Cat Bio) to remove the DIBAC-CA solution and washed two times with HBSS (Ca2 + , Mg2 + ). A volume of 30 μL of assay buffer was added back to cell plates. Peptides were serially diluted 4-fold in DMSO with a Hamilton Star apparatus and then delivered into assay plates with an acoustic liquid handler Labcyte ECHO (300 nl, 1% DMSO in-well concentration). After incubating cells with peptide for the desired time (4 or 18 h), the HaloTag ligand, NanoBret618-azide, was added to each well at a final concentration of 10 μM. […] Following addition of NanoBRET Nano-Glo Substrate, donor emission (450 nm) and acceptor emission (610 nm) were measured using an Envision instrument (PerkinElmer).

[3] = Experimental LogD (partition coefficient); settings: not stated, Partition Coeff LogD
[4] = Nanoclick permeability assay EC50
[5] = 0% FBS 4Hr, read-out: LDH: Cytotoxicity assay EC50
[6] = 10% FBS 16Hr, read-out: LDH: Cytotoxicity assay EC50
[7] = 0% FBS 4Hr, read-out: LDH: Cytotoxicity assay: EC50

| SMILES | LDH: Cytotoxicity assay: % Effect (HCT116 cells) [%] | pEC50 ([1]; LDH: Cytotoxicity assay: EC50) | solubility kinetic [2] [µM] | cell entry EC50 (in vitro; [4]) [µM] | logD [3] | LDH: Cytotoxicity assay % Effect (HCT116 cells; 0% FBS 4Hr) [%] | LDH: Cytotoxicity assay % Effect (HCT116 cells; 10% FBS 16Hr) [%] | pEC50 [1, 5] | pEC50 [1, 6] | cell entry EC50 (in vitro) [µM] | pEC50 (HCT116 cells) | LDH: Cytotoxicity assay: % Effect (HCT116 cells; 0% FBS 4Hr) [%] | pEC50 [1, 7] | LDH: Cytotoxicity assay: % Effect (HCT116 cells; 10% FBS 16Hr) [%] | pEC50 ([1]; 10% FBS 16Hr, read-out: LDH: Cytotoxicity assay: EC50) |
| --- | --- | --- | --- | --- | --- | --- | --- | --- | --- | --- | --- | --- | --- | --- | --- |
| CC(=O)N[C@@H](CCC(=O)O)C(=O)N[C@@H](CCC(=O)O)C(=O)N[C@@H](CCC(=O)O)C(=O)N[C@@H](CCCCN=[N+]=[N-])C(=O)NCCC(=O)N[C@@H](CC(C)C)C(=O)N[C@H](C(=O)N[C@@H](Cc1ccccc1)C(=O)N[C@]1(C)CCCCCCC=CCCC[C@@](C)(C(=O)N[C@@H](CCC(=O)O)C(=O)N[C@@H](CCC(=O)O)C(=O)N[C@@H](CCC(=O)O)C(N)=O)NC(=O)[C@H](CC2CCC2)NC(=O)[C@H](CCC(N)=O)NC(=O)[C@H](C)NC(=O)[C@H](Cc2c[nH]c3ccccc23)NC(=O)[C@H](Cc2ccc(O)cc2)NC(=O)[C@H](CCC(=O)O)NC1=O)[C@@H](C)O [MP-764] (Ac-EEE[Lys(N3)][βAla]LTF[R8]EYWAQ[Cba][S5]EEE-NH2; staple 9-16) | -1.252 | < 4.30 | 22 (≈ 55.3 µg/mL) | 2.67 | 1.26 | – | – | – | – | – | – | – | – | – | – |
| CC(=O)N[C@@H](CCCCN=[N+]=[N-])C(=O)NCCC(=O)N[C@@H](CC(C)C)C(=O)N[C@H](C(=O)N[C@@H](Cc1ccccc1)C(=O)N[C@]1(C)CCCCCCC=CCCC[C@@](C)(C(=O)N[C@@H](C)C(=O)N[C@@H](C)C(=O)N[C@@H](C)C(=O)N[C@@H](CCC(=O)O)C(=O)N[C@@H](C)C(=O)N[C@H](C)C(N)=O)NC(=O)[C@H](CC2CCC2)NC(=O)[C@H](CCC(N)=O)NC(=O)[C@H](C)NC(=O)[C@H](Cc2c[nH]c3ccccc23)NC(=O)[C@H](Cc2ccc(O)cc2)NC(=O)[C@H](CCC(=O)O)NC1=O)[C@@H](C)O [MP-835] (Ac-[Lys(N3)][βAla]LTF[R8]EYWAQ[Cba][S5]AAAEA[dA]-NH2; staple 6-13) | – | – | 162 (≈ 361 µg/mL) | – | 2.16 | 3.786 | 22.41 | < 4.29 | < 4.29 | 0.537 | – | – | – | – | – |
| CC(=O)N[C@@H](CCC(=O)O)C(=O)N[C@@H](CCC(=O)O)C(=O)N[C@@H](CCC(=O)O)C(=O)N[C@@H](CCCCN=[N+]=[N-])C(=O)NCCC(=O)N[C@@H](CC(C)C)C(=O)N[C@H](C(=O)N[C@@H](Cc1ccccc1)C(=O)N[C@]1(C)CCCCCCC=CCCC[C@@](C)(C(=O)N[C@@H](CO)C(=O)N[C@@H](C)C(=O)N[C@@H](C)C(N)=O)NC(=O)[C@H](CC2CCC2)NC(=O)[C@H](CCC(N)=O)NC(=O)[C@H](C)NC(=O)[C@H](Cc2c[nH]c3ccccc23)NC(=O)[C@H](Cc2ccc(O)cc2)NC(=O)[C@H](CCC(=O)O)NC1=O)[C@@H](C)O [MP-617] | -1.09 | < 4.30 | 81.5 (≈ 192 µg/mL) | 0.842 | 2.09 | – | – | – | – | – | – | – | – | – | – |
| CC(C)C[C@H](NC(=O)CCNC(=O)[C@@H](N)CCCCN=[N+]=[N-])C(=O)N[C@H](C(=O)N[C@@H](Cc1ccccc1)C(=O)N[C@]1(C)CCCCCCC=CCCC[C@@](C)(C(N)=O)NC(=O)[C@H](CC2CCC2)NC(=O)[C@H](CC(C)C)NC(=O)[C@H](CCC(N)=O)NC(=O)[C@H](Cc2c[nH]c3ccccc23)NC(=O)[C@H](Cc2ccc(O)cc2)NC(=O)[C@H](CCC(=O)O)NC1=O)[C@@H](C)O [MP-329] (H-[Lys(N3)][βAla]LTF[R8]EYWQL[Cba][S5]-NH2; staple 6-13) | – | < 4.29 | 5 (≈ 8.71 µg/mL) | 2.69 | 2.71 | – | – | – | – | – | 4.30 | – | – | – | – |
| CC(=O)N[C@@H](CCCCN=[N+]=[N-])C(=O)NCCC(=O)N[C@@H](CC(C)C)C(=O)N[C@H](C(=O)N[C@@H](Cc1ccccc1)C(=O)N[C@]1(C)CCCCCCC=CCCC[C@@](C)(C(=O)N[C@@H](CCC(=O)O)C(=O)N[C@@H](CC(N)=O)C(=O)N[C@@H](Cc2ccccc2)C(N)=O)NC(=O)[C@H](CC2CCC2)NC(=O)[C@H](CCC(N)=O)NC(=O)[C@H](C)NC(=O)[C@H](Cc2c[nH]c3ccccc23)NC(=O)[C@H](Cc2ccc(O)cc2)NC(=O)[C@H](CCC(=O)O)NC1=O)[C@@H](C)O [MP-328] (Ac-[Lys(N3)][βAla]LTF[R8]EYWAQ[Cba][S5]ENF-NH2; staple 6-13) | – | – | 108 (≈ 230 µg/mL) | – | 2.65 | – | – | – | – | 0.0663 | – | -1.88 | < 4.30 | – | – |
| CC(=O)N[C@@H](CCCCN=[N+]=[N-])C(=O)NCCC(=O)N[C@@H](CC(C)C)C(=O)N[C@H](C(=O)N[C@@H](Cc1ccccc1)C(=O)N[C@]1(C)CCCCCCC=CCCC[C@@](C)(C(=O)N[C@@H](C)C(=O)N[C@@H](CCC(N)=O)C(=O)N[C@@H](C)C(=O)N[C@@H](C)C(=O)N[C@@H](C)C(=O)N[C@H](C)C(N)=O)NC(=O)[C@H](CC2CCC2)NC(=O)[C@H](CCC(N)=O)NC(=O)[C@H](C)NC(=O)[C@H](Cc2c[nH]c3ccccc23)NC(=O)[C@H](Cc2ccc(O)cc2)NC(=O)[C@H](CCC(=O)O)NC1=O)[C@@H](C)O [MP-966] (Ac-[Lys(N3)][βAla]LTF[R8]EYWAQ[Cba][S5]AQAAA[dA]-NH2; staple 6-13) | – | – | 160 (≈ 356 µg/mL) | – | 3.07 | -1.602 | 12.04 | < 4.29 | < 4.29 | 6.1 | – | – | – | – | – |
| CC(=O)N[C@@H](CCCCN=[N+]=[N-])C(=O)NCCC(=O)N[C@@H](CC(C)C)C(=O)N[C@H](C(=O)N[C@@H](Cc1ccccc1)C(=O)N[C@]1(C)CCCCCCC=CCCC[C@@](C)(C(=O)NCC(=O)NCC(=O)NCC(=O)NCC(=O)NCC(=O)NCC(N)=O)NC(=O)[C@H](CC2CCC2)NC(=O)[C@H](CCC(N)=O)NC(=O)[C@H](C)NC(=O)[C@H](Cc2c[nH]c3ccccc23)NC(=O)[C@H](Cc2ccc(O)cc2)NC(=O)[C@H](CCC(=O)O)NC1=O)[C@@H](C)O [MP-289] (Ac-[Lys(N3)][βAla]LTF[R8]EYWAQ[Cba][S5]GGGGGG-NH2; staple 6-13) | – | – | 142 (≈ 296 µg/mL) | – | 2.58 | – | – | – | – | 0.615 | – | -4.216 | < 4.29 | 3.579 | < 4.29 |
| CC(=O)N[C@@H](CCCCN=[N+]=[N-])C(=O)NCCC(=O)N[C@@H](Cc1ccc(S(=O)(=O)O)cc1)C(=O)N[C@H](C(=O)N[C@@H](Cc1ccccc1)C(=O)N[C@]1(C)CCCCCCC=CCCC[C@@](C)(C(=O)N[C@@H](CO)C(=O)N[C@@H](C)C(=O)N[C@@H](C)C(N)=O)NC(=O)[C@H](CC2CCC2)NC(=O)[C@H](CCC(N)=O)NC(=O)[C@H](C)NC(=O)[C@H](Cc2c[nH]c3ccccc23)NC(=O)[C@H](Cc2ccc(O)cc2)NC(=O)[C@H](CCC(=O)O)NC1=O)[C@@H](C)O [MP-7668] (Ac-[Lys(N3)][βAla][Phe(4-SO3H)]TF[R8]EYWAQ[Cba][S5]SAA-NH2; staple 6-13) | 2.173 | < 4.30 | 28 (≈ 58.4 µg/mL) | 0.406 | 2.31 | – | – | – | – | – | – | – | – | – | – |
| CC(C)C[C@@H]1NC(=O)[C@H](C)NC(=O)[C@H](Cc2c[nH]c3ccccc23)NC(=O)[C@H](Cc2ccc(O)cc2)NC(=O)[C@H](CCC(=O)O)NC(=O)[C@](C)(NC(=O)[C@H](Cc2ccccc2)NC(=O)[C@H](CO)NC(=O)[C@@H](NC(=O)[C@H](CO)NC(=O)CNC(=O)[C@H](CO)NC(=O)[C@H](CCCCN=[N+]=[N-])NC(=O)[C@@H](N)CCC(=O)O)[C@@H](C)O)CCCCCCC=CCCC[C@@](C)(C(N)=O)NC(=O)[C@H](CC(C)C)NC1=O [MP-0180] | 13.96 | < 4.30 | 24 (≈ 46.4 µg/mL) | 0.495 | 2.21 | – | – | – | – | – | – | – | – | – | – |
| CC(=O)N[C@@H](CCCCN=[N+]=[N-])C(=O)NCCC(=O)N[C@@H](CC(=O)O)C(=O)N[C@H](C(=O)N[C@@H](Cc1ccccc1)C(=O)N[C@]1(C)CCCCCCC=CCCC[C@@](C)(C(=O)N[C@@H](CO)C(=O)N[C@@H](C)C(=O)N[C@@H](C)C(N)=O)NC(=O)[C@H](CC2CCC2)NC(=O)[C@H](CCC(N)=O)NC(=O)[C@H](CC(=O)O)NC(=O)[C@H](Cc2c[nH]c3ccccc23)NC(=O)[C@H](Cc2ccc(O)cc2)NC(=O)[C@H](CC(=O)O)NC1=O)[C@@H](C)O [MP-495, azide-ATSP-7041 (L1D, E5D, A8D)] (Ac-[Lys(N3)][βAla]DTF[R8]DYWDQ[Cba][S5]SAA-NH2; staple 6-13) | – | – | 78.7 (≈ 158 µg/mL) | – | 1.93 | – | – | – | – | 0.327 | – | 1.328 | < 4.30 | – | – |
